Patent publication US9051304B2, “Carboxamide compounds and their use as calpain inhibitors V” (AbbVie Deutschland GmbH & Co. KG, priority 2009, dated 2015)

Columns and labels:
Type in all cases: biochemical
[1] = target: T1, calpain-I isolated from human erythrocytes (Homo sapiens, UniProt P07384); experiment: Calpain I enzyme inhibition, kinetic fluorescence assay; settings: apparent Ki from IC50 by Cheng-Prussoff; human erythrocyte calpain-I
T1 construct: calpain-I—isolated from human erythrocytes; purchased Calbiochem 208713; host or cells: human erythrocytes (tissue isolate)
T1 sequence (P07384 1-714): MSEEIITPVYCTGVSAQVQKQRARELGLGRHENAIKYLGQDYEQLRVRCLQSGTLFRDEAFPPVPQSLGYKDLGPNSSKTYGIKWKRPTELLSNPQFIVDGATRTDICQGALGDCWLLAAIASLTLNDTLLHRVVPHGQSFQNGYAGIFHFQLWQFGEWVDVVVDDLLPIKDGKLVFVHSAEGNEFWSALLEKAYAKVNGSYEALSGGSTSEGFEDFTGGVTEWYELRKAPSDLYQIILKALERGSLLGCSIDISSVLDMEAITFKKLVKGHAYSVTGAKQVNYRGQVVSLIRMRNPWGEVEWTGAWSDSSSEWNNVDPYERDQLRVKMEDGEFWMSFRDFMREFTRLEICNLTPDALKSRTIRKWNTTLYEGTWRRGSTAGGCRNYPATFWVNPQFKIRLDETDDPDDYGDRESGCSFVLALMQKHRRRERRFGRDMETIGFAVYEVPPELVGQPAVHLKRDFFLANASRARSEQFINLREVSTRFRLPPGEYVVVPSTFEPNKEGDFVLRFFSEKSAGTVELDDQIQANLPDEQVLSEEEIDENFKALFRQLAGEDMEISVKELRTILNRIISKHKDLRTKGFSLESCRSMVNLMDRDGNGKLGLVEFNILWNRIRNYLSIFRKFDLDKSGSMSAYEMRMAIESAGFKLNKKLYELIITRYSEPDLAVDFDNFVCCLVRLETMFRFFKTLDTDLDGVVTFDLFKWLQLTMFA
T1 sequence (P04632 1-268 partner): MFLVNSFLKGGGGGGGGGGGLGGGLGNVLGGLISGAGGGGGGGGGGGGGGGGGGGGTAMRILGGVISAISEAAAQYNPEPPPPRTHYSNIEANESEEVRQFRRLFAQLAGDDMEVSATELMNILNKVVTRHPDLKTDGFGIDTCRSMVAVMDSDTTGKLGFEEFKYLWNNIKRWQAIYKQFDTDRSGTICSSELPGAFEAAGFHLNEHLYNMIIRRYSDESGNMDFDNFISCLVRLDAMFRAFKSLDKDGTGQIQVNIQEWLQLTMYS
Experimental: (§1) I Enzyme Inhibition in vitro:
(§2) Testing for blockade of the corresponding enzymic activities was carried out by means of kinetic fluorescence assays (excitation 390 nm, emission 460 nm).
(§3) Apparent Ki values were calculated from the experimentally determined IC50 values by the Cheng-Prussoff relation assuming a reversible competitive enzyme inhibition.
20 nM calpain-I—isolated from human erythrocytes (Calbiochem #208713), 100 μM Suc-Leu-Tyr-AMC (Bachem #I-1355) as substrate in buffer with 62 mM imidazole, 0.3 mM CaCl2, 0.10% CHAPS, 0.05% BSA, 1 mM DTT at pH 7.3 and room temperature.

[2] = target: T2, cathepsin B isolated from human liver (Homo sapiens, UniProt P07858); experiment: Cathepsin B enzyme inhibition, kinetic fluorescence assay; settings: selectivity ratio vs calpain
T2 construct: cathepsin B—isolated from human liver; purchased Calbiochem 219362; host or cells: human liver (tissue isolate)
Experimental: as §1, §2, §3
0.25 nM cathepsin B—isolated from human liver (Calbiochem #219362), 100 μM Z-Phe-Arg-AMC (Bachem #I-1160) as substrate 50 mM MES, 2 mM EDTA, 0.05% Brij 35, 2.5 mM L-cysteine, pH 6.0, room temperature.

[3] = target: T3, cathepsin K activated from recombinant human procathepsin K (Homo sapiens, UniProt P43235); experiment: Cathepsin K enzyme inhibition, kinetic fluorescence assay; settings: selectivity ratio vs calpain
T3 construct: purchased Calbiochem 342001; host or cells: E. coli
T3 sequence (P43235 115-329): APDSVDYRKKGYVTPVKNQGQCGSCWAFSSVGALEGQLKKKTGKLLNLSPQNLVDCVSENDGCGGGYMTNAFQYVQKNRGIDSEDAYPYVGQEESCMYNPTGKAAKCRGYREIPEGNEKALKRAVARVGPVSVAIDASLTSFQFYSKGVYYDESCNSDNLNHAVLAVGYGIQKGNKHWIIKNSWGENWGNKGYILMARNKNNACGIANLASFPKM
Experimental: as §1, §2, §3
3 nM cathepsin K—activated from recombinant human procathepsin K from E. coli (Calbiochem #342001), 10 μM Z-Gly-Pro-Arg-AMC (Biomol #P-142) as substrate in 50 mM MES, 2 mM EDTA, 0.05% Brij 35, 2.5 mM L-cysteine, pH 6.0, room temperature.

[4] = target: T4, cathepsin L isolated from human liver (Homo sapiens, UniProt P07711); experiment: Cathepsin L enzyme inhibition, kinetic fluorescence assay; settings: selectivity ratio vs calpain
T4 construct: cathepsin L—isolated from human liver; purchased Calbiochem 219402; host or cells: human liver (tissue isolate)
Experimental: as §1, §2, §3
1 nM cathepsin L—isolated from human liver (Calbiochem #219402), 2 μM Z-Phe-Arg-AMC (Bachem #I-1160) as substrate in 50 mM MES, 2 mM EDTA, 0.05% Brij 35, 2.5 mM L-cysteine, pH 6.0, room temperature.

[5] = target: T5, recombinant human cathepsin S (Homo sapiens, UniProt P25774); experiment: Cathepsin S enzyme inhibition, kinetic fluorescence assay; settings: selectivity ratio vs calpain
T5 construct: purchased Calbiochem 219343; host or cells: E. coli
Experimental: as §1, §2, §3
0.5 nM recombinant human cathepsin S from E. coli (Calbiochem #219343), 20 μM Z-Val-Val-Arg-AMC (Bachem #I-1540) as substrate in 50 mM MES, 2 mM EDTA, 0.05% Brij 35, 2.5 mM L-cysteine, pH 6.0, room temperature.

T4 sequence (P07711 114-333): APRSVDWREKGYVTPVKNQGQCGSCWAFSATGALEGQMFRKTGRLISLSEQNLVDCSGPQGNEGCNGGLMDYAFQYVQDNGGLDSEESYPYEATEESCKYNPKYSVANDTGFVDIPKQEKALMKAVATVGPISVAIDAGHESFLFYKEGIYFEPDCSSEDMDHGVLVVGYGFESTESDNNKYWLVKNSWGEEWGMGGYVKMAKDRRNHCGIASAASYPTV
T5 sequence (P25774 115-331): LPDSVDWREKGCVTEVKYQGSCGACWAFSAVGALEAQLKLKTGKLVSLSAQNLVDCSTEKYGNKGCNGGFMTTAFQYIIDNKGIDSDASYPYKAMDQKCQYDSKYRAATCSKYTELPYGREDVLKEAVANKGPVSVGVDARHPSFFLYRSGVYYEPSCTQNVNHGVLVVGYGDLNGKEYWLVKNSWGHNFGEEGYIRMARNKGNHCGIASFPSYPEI

With `NC(=O)C(=O)C(Cc1ccccc1)NC(=O)c1cccnc1-n1ccc(-c2ccc(F)cc2)n1` (stereo not drawn) [28 (comp.), N-(3-Amino-1-benzyl-2,3-dioxopropyl)-2-[3-(4-fluorophenyl)-1H-pyrazol-1-yl]nicotinamide, reference compound] as the compound, how does the Ki [1] read?
Its Ki is less than 200 nM.

How did the Ki [1] turn out when `CONC(=O)C(=O)C(Cc1ccccc1)NC(=O)c1cccnc1-n1ccc(-c2ccc(F)cc2)n1` (stereo not drawn) [Example 1, 2-[3-(4-Fluorophenyl)-1H-pyrazol-1-yl]-N-[4-(methoxyamino)-3,4-dioxo-1-phenylbutan-2-yl]pyridine-3-carboxamide] was run?
The Ki was 200 to 300 nM.

`CONC(=O)C(=O)C(Cc1ccccc1)NC(=O)c1cccnc1-n1ccc(-c2ccccc2)n1` (stereo not drawn) [Example 2, N-(4-(Methoxyamino)-3,4-dioxo-1-phenylbutan-2-yl)-2-(3-phenyl-1H-pyrazol-1-yl)nicotinamide] was tested. Which Ki [1] did it give?
Its Ki is less than 200 nM.

How did the Ki [1] turn out when `CONC(=O)C(=O)C(Cc1ccccc1)NC(=O)c1cccnc1-n1cc(F)c(-c2ccccc2)n1` (stereo not drawn) [Example 3, 2-(4-Fluoro-3-phenyl-1H-pyrazol-1-yl)-N-(4-(methoxyamino)-3,4-dioxo-1-phenylbutan-2-yl)nicotinamide] was run?
Its Ki is less than 200 nM.

With `CONC(=O)C(=O)C(Cc1ccccc1)NC(=O)c1cccnc1-n1cc(C)c(-c2ccccc2)n1` (stereo not drawn) [Example 4, N-[4-(Methoxyamino)-3,4-dioxo-1-phenylbutan-2-yl]-2-(4-methyl-3-phenyl-1H-pyrazol-1-yl)pyridine-3-carboxamide] as the compound, how does the Ki [1] read?
The Ki was 300 to 600 nM.

How did the Ki [1] turn out when `CONC(=O)C(=O)C(Cc1ccc(F)cc1)NC(=O)c1cccnc1-n1ccc(-c2ccccc2)n1` (stereo not drawn) [Example 5, N-(1-(4-Fluorophenyl)-4-(methoxyamino)-3,4-dioxo-butan-2-yl)-2-(3-phenyl-1H-pyrazol-1-yl)nicotinamide] was run?
The Ki was 300 to 600 nM.

How did the Ki [1] turn out when `CONC(=O)C(=O)C(Cc1cccc(F)c1)NC(=O)c1cccnc1-n1ccc(-c2ccccc2)n1` (stereo not drawn) [Example 6, N-(1-(3-Fluorophenyl)-4-(methoxyamino)-3,4-dioxobutan-2-yl)-2-(3-phenyl-1H-pyrazol-1-yl)nicotinamide] was run?
Its Ki is 200 to 300 nM.

How did the Ki [1] turn out when `C=CCONC(=O)C(=O)C(Cc1ccccc1)NC(=O)c1cccnc1-n1ccc(-c2ccccc2)n1` (stereo not drawn) [Example 8, N-(4-(Allyloxyamino)-3,4-dioxo-1-phenylbutan-2-yl)-2-(3-phenyl-1H-pyrazol-1-yl)nicotinamide] was run?
Its Ki is less than 200 nM.

Which Ki [1] does the source give for `CONC(=O)C(=O)C(Cc1ccccc1)NC(=O)c1cccnc1-n1cc(Cl)c(-c2ccccc2)n1` (stereo not drawn) [Example 10, 2-(4-Chloro-3-phenyl-1H-pyrazol-1-yl)-N-(4-(methoxyamino)-3,4-dioxo-1-phenylbutan-2-yl)nicotinamide] here?
The Ki was 300 to 600 nM.

What about the “Sel cat. B (Ki(cathepsin B)/Ki(calpain) ratio)” value [2] of the same compound?
The value was “∘”.

What about the “Sel cat. K (Ki(cathepsin K)/Ki(calpain) ratio)” value [3] of the same compound?
The value was “+ (+ means 2≦Ki(cathepsin K)/Ki(calpain)≦4)”.

And the “Sel cat. L (Ki(cathepsin L)/Ki(calpain) ratio)” value [4]?
Its value is “++ (++ means 10<Ki(cathepsin L)/Ki(calpain)≦50)”.

And the “Sel cat. S (Ki(cathepsin S)/Ki(calpain) ratio)” value [5]?
The value was “++ (++ means 10<Ki(cathepsin S)/Ki(calpain)≦50)”.

`CC(C)ONC(=O)C(=O)C(Cc1ccccc1)NC(=O)c1cccnc1-n1ccc(-c2ccccc2)n1` (stereo not drawn) [Example 11, N-[4-(Isopropoxyamino)-3,4-dioxo-1-phenyl-2-butanyl]-2-(3-phenyl-1H-pyrazol-1-yl)nicotinamide] was tested. Which Ki [1] did it give?
The Ki was less than 200 nM.

`CCCONC(=O)C(=O)C(Cc1ccccc1)NC(=O)c1cccnc1-n1ccc(-c2ccccc2)n1` (stereo not drawn) [Example 12, N-[3,4-Dioxo-1-phenyl-4-(propoxyamino)-2-butanyl]-2-(3-phenyl-1H-pyrazol-1-yl)nicotinamide] was tested. Which Ki [1] did it give?
Its Ki is less than 200 nM.

For `CONC(=O)C(=O)C(Cc1ccccc1)NC(=O)c1cccnc1-n1ccc(-c2ccc(N3CCOCC3)cc2)n1` (stereo not drawn) [Example 13, N-[4-(Methoxyamino)-3,4-dioxo-1-phenyl-2-butanyl]-2-{3-[4-(4-morpholinyl)phenyl]-1H-pyrazol-1-yl}nicotinamide], which Ki [1] is on record?
The Ki was 300 to 600 nM.

And the “Sel cat. B (Ki(cathepsin B)/Ki(calpain) ratio)” value [2]?
The value was “∘”.

What about the “Sel cat. K (Ki(cathepsin K)/Ki(calpain) ratio)” value [3] of the same compound?
The value was “+ (+ means 2≦Ki(cathepsin K)/Ki(calpain)≦4)”.

What about the “Sel cat. L (Ki(cathepsin L)/Ki(calpain) ratio)” value [4] of the same compound?
The value was “++ (++ means 10<Ki(cathepsin L)/Ki(calpain)≦50)”.

What about the “Sel cat. S (Ki(cathepsin S)/Ki(calpain) ratio)” value [5] of the same compound?
Its value is “++ (++ means 10<Ki(cathepsin S)/Ki(calpain)≦50)”.

For `O=C(NOC1CCCC1)C(=O)C(Cc1ccccc1)NC(=O)c1cccnc1-n1ccc(-c2ccccc2)n1` (stereo not drawn) [Example 17, N-{4-[(Cyclopentyloxy)amino]-3,4-dioxo-1-phenyl-2-butanyl}-2-(3-phenyl-1H-pyrazol-1-yl)nicotinamide], which Ki [1] is on record?
The Ki was 200 to 300 nM.

How did the Ki [1] turn out when `CCONC(=O)C(=O)C(Cc1ccc(F)cc1)NC(=O)c1cccnc1-n1ccc(-c2ccccc2)n1` (stereo not drawn) [Example 18, N-[4-(Ethoxyamino)-1-(4-fluorophenyl)-3,4-dioxo-2-butanyl]-2-(3-phenyl-1H-pyrazol-1-yl)nicotinamide] was run?
Its Ki is less than 200 nM.

With `CCONC(=O)C(=O)C(Cc1ccccc1)NC(=O)c1cccnc1-n1cc(F)c(-c2ccccc2)n1` (stereo not drawn) [Example 19, N-[4-(Ethoxyamino)-3,4-dioxo-1-phenyl-2-butanyl]-2-(4-fluoro-3-phenyl-1H-pyrazol-1-yl)nicotinamide] as the compound, how does the Ki [1] read?
Its Ki is less than 200 nM.

Which Ki [1] does the source give for `O=C(NOC1CCC1)C(=O)C(Cc1ccccc1)NC(=O)c1cccnc1-n1ccc(-c2ccccc2)n1` (stereo not drawn) [Example 20, N-{4-[(Cyclobutyloxy)amino]-3,4-dioxo-1-phenyl-2-butanyl}-2-(3-phenyl-1H-pyrazol-1-yl)nicotinamide] here?
The Ki was less than 200 nM.

Which Ki [1] does the source give for `O=C(NOCCN1CCOCC1)C(=O)C(Cc1ccccc1)NC(=O)c1cccnc1-n1ccc(-c2ccccc2)n1` (stereo not drawn) [Example 22, N-(4-{[2-(4-Morpholinyl)ethoxy]amino}-3,4-dioxo-1-phenyl-2-butanyl)-2-(3-phenyl-1H-pyrazol-1-yl)nicotinamide] here?
The Ki was 200 to 300 nM.

`O=C(NOCC1CC1)C(=O)C(Cc1ccccc1)NC(=O)c1cccnc1-n1ccc(-c2ccccc2)n1` (stereo not drawn) [Example 23, N-{4-[(Cyclopropylmethoxy)amino]-3,4-dioxo-1-phenyl-2-butanyl}-2-(3-phenyl-1H-pyrazol-1-yl)nicotinamide] was tested. Which Ki [1] did it give?
Its Ki is less than 200 nM.

Which Ki [1] does the source give for `CONC(=O)C(=O)C(Cc1ccccc1)NC(=O)c1cccnc1-n1ccc(-c2ccccc2F)n1` (stereo not drawn) [Example 25, 2-[3-(2-Fluorophenyl)-1H-pyrazol-1-yl]-N-[4-(methoxyamino)-3,4-dioxo-1-phenyl-2-butanyl]nicotinamide] here?
The Ki was less than 200 nM.
